Results taken from the CheMixHub viscosity set.
“And” between values parts separate entries of the source, which are not always exact repeats. Equal values may be shown once.

Assay: xn = mol fraction of the nth substance listed

C[C@H](CCC(=O)[O-])[C@H]1CC[C@H]2[C@@H]3[C@H](O)C[C@@H]4C[C@H](O)CC[C@]4(C)[C@H]3C[C@H](O)[C@]12C.[Na+] + O
viscosity [mPa·s], 101 kPa
Settings | x1 = 4.223e-05 | x1 = 8.385e-05 | x1 = 0.0001682 | x1 = 0.0003376 | x1 = 0.0004225 | x1 = 0.0005082 | x1 = 0.0006801 | x1 = 0.0008535
293.15 K | – | – | – | – | – | – | 1.082 | 1.105
298.15 K | – | 0.8984 | – | 0.9231 | – | 0.9405 | 0.9598 | 0.9782
303.15 K | 0.801 | 0.8044 | 0.8115 | 0.8262 | 0.8337 | – | 0.8579 | 0.875
308.15 K | – | 0.7264 | 0.7329 | 0.7454 | 0.7527 | 0.7593 | 0.774 | 0.7887
313.15 K | – | – | – | 0.6763 | 0.6826 | – | 0.7016 | 0.7154

NC(N)=S + O
viscosity [mPa·s], 100 kPa
Settings | 293.15 K | 298.15 K | 303.15 K | 308.15 K | 313.15 K
x1 = 0.00045 | 1.01 | 0.907 | 0.817 | 0.735 | 0.668
x1 = 0.0009 | 1.019 | 0.916 | 0.823 | 0.747 | 0.677
x1 = 0.0013 | 1.029 | 0.935 | 0.847 | 0.763 | 0.702

OC[C@H]1O[C@@](CO)(O[C@H]2O[C@H](CO)[C@@H](O)[C@H](O)[C@H]2O)[C@@H](O)[C@@H]1O + O
Settings | viscosity
293.15 K, 101 kPa, x1 = 0.00581 | 1.26 mPa·s and 1.27 mPa·s
293.15 K, 101 kPa, x1 = 0.013 | 1.96 mPa·s
293.15 K, 101 kPa, x1 = 0.0221 | 3.21 mPa·s
293.15 K, 101 kPa, x1 = 0.0339 | 6.2 mPa·s
293.15 K, 101 kPa, x1 = 0.05 | 15.04 mPa·s and 15.1 mPa·s
293.15 K, 101 kPa, x1 = 0.0732 | 56.76 mPa·s and 76.48 mPa·s
293.16 K, 101.3 kPa, x1 = 0.013 | 1.96 mPa·s
293.16 K, 101.3 kPa, x1 = 0.073 | 56.5 mPa·s
298.15 K, 100 kPa, x1 = 0.0009 | 1.035 mPa·s
298.15 K, 100 kPa, x1 = 0.001818 | 0.98 mPa·s
298.15 K, 100 kPa, x1 = 0.004482 | 1.104 mPa·s
298.15 K, 100 kPa, x1 = 0.007149 | 1.222 mPa·s
298.15 K, 100 kPa, x1 = 0.008888 | 1.295 mPa·s
298.15 K, 101 kPa, x1 = 0.003 | 1.03 mPa·s
298.15 K, 101 kPa, x1 = 0.0058 | 1.194 mPa·s
298.15 K, 101 kPa, x1 = 0.00581 | 1.13 mPa·s
298.15 K, 101 kPa, x1 = 0.013 | 1.715 mPa·s and 1.7 mPa·s
298.15 K, 101 kPa, x1 = 0.017 | 2.15 mPa·s
298.15 K, 101 kPa, x1 = 0.0221 | 2.65 mPa·s
298.15 K, 101 kPa, x1 = 0.0339 | 5.17 mPa·s
298.15 K, 101 kPa, x1 = 0.05 | 11.49 mPa·s and 11.8 mPa·s
298.15 K, 101 kPa, x1 = 0.0732 | 43.88 mPa·s and 47.98 mPa·s
303.15 K, 100 kPa, x1 = 0.0009 | 0.944 mPa·s
303.16 K, 101.3 kPa, x1 = 0.013 | 1.504 mPa·s
303.16 K, 101.3 kPa, x1 = 0.073 | 33.78 mPa·s
308.15 K, 100 kPa, x1 = 0.0009 | 0.8578 mPa·s
308.15 K, 100 kPa, x1 = 0.001818 | 0.789 mPa·s
308.15 K, 100 kPa, x1 = 0.002681 | 0.822 mPa·s
308.15 K, 100 kPa, x1 = 0.003594 | 0.855 mPa·s
308.15 K, 100 kPa, x1 = 0.004482 | 0.886 mPa·s
308.15 K, 100 kPa, x1 = 0.00626 | 0.949 mPa·s
308.15 K, 100 kPa, x1 = 0.007149 | 0.978 mPa·s
308.15 K, 100 kPa, x1 = 0.008888 | 1.035 mPa·s
308.15 K, 101 kPa, x1 = 0.001814 | 0.712 mPa·s
308.15 K, 101 kPa, x1 = 0.003 | 0.822 mPa·s
308.15 K, 101 kPa, x1 = 0.003622 | 0.777 mPa·s
308.15 K, 101 kPa, x1 = 0.0058 | 0.949 mPa·s
308.15 K, 101 kPa, x1 = 0.00581 | 0.89 mPa·s and 0.92 mPa·s
308.15 K, 101 kPa, x1 = 0.007213 | 0.915 mPa·s
308.15 K, 101 kPa, x1 = 0.0092 | 1.117 mPa·s
308.15 K, 101 kPa, x1 = 0.013 | 1.337 mPa·s and 1.35 mPa·s
308.15 K, 101 kPa, x1 = 0.01428 | 1.291 mPa·s
308.15 K, 101 kPa, x1 = 0.017 | 1.654 mPa·s
308.15 K, 101 kPa, x1 = 0.01781 | 1.535 mPa·s
308.15 K, 101 kPa, x1 = 0.0224 | 2.075 mPa·s
308.15 K, 101 kPa, x1 = 0.0279 | 2.588 mPa·s
308.15 K, 101 kPa, x1 = 0.0339 | 3.8 mPa·s
308.15 K, 101 kPa, x1 = 0.0354 | 3.655 mPa·s
308.15 K, 101 kPa, x1 = 0.05 | 8.69 mPa·s
308.15 K, 101 kPa, x1 = 0.05167 | 6.396 mPa·s
308.15 K, 101 kPa, x1 = 0.0732 | 26.67 mPa·s and 27.9 mPa·s
313.15 K, 100 kPa, x1 = 0.0009 | 0.7866 mPa·s
313.15 K, 101 kPa, x1 = 0.00581 | 0.82 mPa·s
313.15 K, 101 kPa, x1 = 0.013 | 1.2 mPa·s
313.15 K, 101 kPa, x1 = 0.0339 | 3.25 mPa·s
313.15 K, 101 kPa, x1 = 0.05 | 6.35 mPa·s and 6.35 mPa·s
313.15 K, 101 kPa, x1 = 0.0732 | 21.32 mPa·s and 25.87 mPa·s
313.16 K, 101.3 kPa, x1 = 0.013 | 1.193 mPa·s
313.16 K, 101.3 kPa, x1 = 0.073 | 21.28 mPa·s
318.15 K, 100 kPa, x1 = 0.001818 | 0.657 mPa·s
318.15 K, 100 kPa, x1 = 0.002681 | 0.683 mPa·s
318.15 K, 100 kPa, x1 = 0.003594 | 0.709 mPa·s
318.15 K, 100 kPa, x1 = 0.004482 | 0.733 mPa·s
318.15 K, 100 kPa, x1 = 0.00626 | 0.783 mPa·s
318.15 K, 100 kPa, x1 = 0.007149 | 0.805 mPa·s
318.15 K, 100 kPa, x1 = 0.008888 | 0.86 mPa·s
318.15 K, 101 kPa, x1 = 0.00581 | 0.74 mPa·s
318.15 K, 101 kPa, x1 = 0.00722 | 0.771 mPa·s
318.15 K, 101 kPa, x1 = 0.01077 | 0.9 mPa·s
318.15 K, 101 kPa, x1 = 0.013 | 1.06 mPa·s
318.15 K, 101 kPa, x1 = 0.01432 | 0.984 mPa·s
318.15 K, 101 kPa, x1 = 0.01785 | 1.164 mPa·s
318.15 K, 101 kPa, x1 = 0.02128 | 1.431 mPa·s
318.15 K, 101 kPa, x1 = 0.0221 | 1.51 mPa·s
318.15 K, 101 kPa, x1 = 0.0339 | 2.84 mPa·s
318.15 K, 101 kPa, x1 = 0.03502 | 2.618 mPa·s
318.15 K, 101 kPa, x1 = 0.05 | 5.04 mPa·s and 5.1 mPa·s
318.15 K, 101 kPa, x1 = 0.0732 | 17.2 mPa·s and 17.98 mPa·s
323.15 K, 101 kPa, x1 = 0.00581 | 0.66 mPa·s
323.15 K, 101 kPa, x1 = 0.013 | 0.98 mPa·s
323.15 K, 101 kPa, x1 = 0.0221 | 1.36 mPa·s
323.15 K, 101 kPa, x1 = 0.0339 | 2.52 mPa·s
323.15 K, 101 kPa, x1 = 0.05 | 4.78 mPa·s and 4.82 mPa·s
323.15 K, 101 kPa, x1 = 0.0732 | 14.07 mPa·s and 16.78 mPa·s
